Molecular target: T1, voltage gated potassium channel Kv1.3 (Homo sapiens, UniProt P22001)
T1 construct: expressed in transfected cells; host or cells: CHO cells
Assay: In vitro inhibition of Kv1.3 potassium channels (Rb efflux, atomic absorption)
Format: cell-based
Settings: CHO cells over-expressing Kv1.3, Rb efflux after depolarization, triplicate; for inhibition at 10 µM: 10^−5 M, read-out: percentage Kv1.3 inhibition at 10^−5M
Description: In vitro inhibition of Kv1.3 potassium channels: the assay was used to determine the permeability of potassium ion channels expressed in the cell membrane. […] Adherent CHO cells over-expressing the voltage gated potassium channel Kv1.3 were loaded with Rb. Depolarization of the cells leads to opening of the potassium channels and to efflux of Rb through the potassium channels. Thus, the Rb concentration in the supernatant is proportional to the potassium ion channel permeability. To identify potassium channel blockers, cells were incubated with compounds before depolarization. A reduction of Rb in the supernatant indicated the presence of a potassium ion channel blocker. The Rb concentration in the supernatant was measured using an Atomic Absorption Spectrometer.
CHO cells expressing either Kv1.3, Kv1.5 or hERG ion channels were cultured at 37° C./5% CO2. Prior to the experiment cells were seeded in 96 well plates (Corning, N.Y., USA) and cultured for 24 h. Medium was discarded and replaced by 100 μl Rb buffer (10 mM HEPES pH 7.4, 5 mM Glucose, 5 mM RbCl, 140 mM NaCl, 2 mM CaCl2, 1 mM MgSO4) per well. After 4 h incubation the cells were washed three times with low potassium buffer (10 mM HEPES pH 7.4, 5 mM Glucose, 5 mM KCl, 140 mM NaCl, 2 mM CaCl2, 1 mM MgSO4). Compounds were dissolved in 75 μl low potassium buffer and added to the cells. After 12 minutes cells were depolarized by adding […] high potassium buffer (10 mM HEPES pH 7.4, 5 mM Glucose, 145 mM KCl, 2 mM CaCl2, 1 mM MgSO4), followed by additional 15 minutes of incubation. The supernatant was transferred in a 96 well plate and the Rb concentration was measured using a ZEEnit Atomic Absorption Spectrometer (Analytik Jena, Germany). By comparing control vs. depolarized w/o compound, the ion channel inhibition was determined. Measurements were done in triplicate.

T1 sequence (P22001 whole entry): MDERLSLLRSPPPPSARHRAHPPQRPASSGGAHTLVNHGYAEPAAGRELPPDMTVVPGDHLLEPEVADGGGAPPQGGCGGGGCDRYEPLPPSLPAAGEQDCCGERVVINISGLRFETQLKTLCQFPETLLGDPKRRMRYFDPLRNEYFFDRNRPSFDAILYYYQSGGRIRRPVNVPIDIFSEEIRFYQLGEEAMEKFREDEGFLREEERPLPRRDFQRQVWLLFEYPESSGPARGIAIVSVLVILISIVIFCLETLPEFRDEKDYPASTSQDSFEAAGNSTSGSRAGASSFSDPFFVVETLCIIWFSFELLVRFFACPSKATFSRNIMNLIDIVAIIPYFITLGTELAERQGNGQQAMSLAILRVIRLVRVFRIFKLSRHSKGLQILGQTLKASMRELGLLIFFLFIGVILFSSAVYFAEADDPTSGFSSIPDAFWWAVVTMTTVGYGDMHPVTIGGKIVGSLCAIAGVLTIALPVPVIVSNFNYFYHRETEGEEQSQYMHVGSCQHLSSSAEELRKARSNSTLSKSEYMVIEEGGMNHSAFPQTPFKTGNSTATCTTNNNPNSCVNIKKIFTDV

| inhibition at 10 µM | percentage Kv1.3 inhibition at 10^−5M | Compound |
| --- | --- | --- |
| 100% | – | C[C@@H](c1ccccc1)N1C[C@@]2(CCCN(C(=O)c3cc(C(F)(F)F)cc(C(F)(F)F)c3)CC2)OC1=O [Compound 29, (5S)-8-[3,5-bis(trifluoromethyl)benzoyl]-3-[(1S)-1-phenylethyl]-1-oxa-3,8-diazaspiro[4.6]-undecan-2-one] |
| 75% | – | C[C@@H](c1ccccc1)N1C[C@]2(CCCN(C(=O)c3cc(C(F)(F)F)cc(C(F)(F)F)c3)CC2)OC1=O [Compound 30, (5R)-8-[3,5-bis(trifluoromethyl)benzoyl]-3-[(1S)-1-phenylethyl]-1-oxa-3,8-diazaspiro[4.6]-undecan-2-one] |
| – | 64% | C[C@H](c1ccccc1)N1CC2(CCCN(C(=O)c3cc(C(F)(F)F)cc(C(F)(F)F)c3)CC2)OC1=O (stereo partly drawn) [Compound 31, 8-(3,5-trifluoromethyl-benzoyl)-3-[(R)-1-phenyl-ethyl]-1-oxa-3,8-diazaspiro[4.6]undecan-2-one] |
| 99% | – | C[C@H](c1ccccc1)N1C[C@@]2(CCCN(C(=O)c3cc(C(F)(F)F)cc(C(F)(F)F)c3)CC2)OC1=O [Compound 32, (5S)-8-[3,5-bis(trifluoromethyl)benzoyl]-3-[(1R)-1-phenylethyl]-1-oxa-3,8-diazaspiro[4.6]-undecan-2-one] |
